Results reported in a melting point compilation (Tetko et al.; mined from patent text by program, amines drawn as free bases though some values may be those of a salt).

Compound | melting point
O=C1C(c2ccccc2)=C(c2ccccc2)C(=O)N1C1CCCCC1 | 159 to 160 °C
COc1ccccc1C(=O)Nc1nc2ccccc2s1 | 196 to 197 °C
COc1ccc(-n2cnc(OC(C)C(=O)O)n2)cc1 (stereo not drawn) | 155 to 157 °C
CCN1CC(c2ccccc2)=C(O)C1=O | 192 to 195 °C
CCCCCCN(CCCCCC)c1ccc(C=CC2=C(C#N)C(=C(C#N)C#N)OC2(C)C)s1 | 172 °C
Cc1cccc2c3c([nH]c12)CCNC3=O | 300 to 302 °C
COc1cc2nc(N)nc(-c3cccc(CO)c3)c2cc1OC | 230 to 232 °C
O=c1ccc(S(=O)(=O)c2oc3ccccc3c2O)n[nH]1 | 186 to 189 °C
CSc1c(C#N)cnn1-c1ccc(C(F)(F)F)cc1Cl | 59 to 62 °C
CC12CC(=O)C3C(CCC4CC=CCC43C)C1CCC2=O (stereo not drawn) | 188 to 192 °C
COc1cc(COc2nn(-c3ccccc3)cc2/C=C/CO)ccc1OCc1nc(-c2ccco2)oc1C | 120 to 121 °C
CN1CCC(N2C(=O)c3cc(Cl)ccc3Sc3ccccc32)CC1 | 164 to 165 °C
Cc1cc(NC(=O)c2ccccc2O)cc(Cl)c1O | 192 to 194 °C
CN(C)C(=O)Oc1cccc2c1CN(Nc1ccncc1)C2 | 183 to 185 °C
CCOC(=O)C1(C(=O)OCC)CCC2(CC1)NCCc1cc(O)c(O)cc12 | 180 to 181 °C
CCN(CC)C(=O)C(C)Cc1nc(-c2ccccc2)nc2ccccc12 (stereo not drawn) | 93.5 °C
CCOC(=O)c1nc(C(=O)OCC)nc(C(=O)OCC)n1 | 169 to 170 °C
O=C1C(=O)c2ccccc2C2=C1SCC1(CCN(Cc3c(F)cccc3Cl)CC1)O2 | 90 to 92 °C
CC(CCC(=O)O)C1CCC2C3C(=O)CC4CC(OC=O)CCC4(C)C3CC(OC=O)C12C (stereo not drawn) | 208 to 211 °C
CC(=N)Nc1cccc(CNO)c1 | 214 to 215 °C
COc1ccc2c(Cl)cc(-n3cccn3)nc2c1 | 80 °C
CCc1nnc(-c2ccc(-c3ccccc3)cc2)n1-c1cccc2cnccc12 | 228 to 230 °C
CC(C)(C)OC(=O)NC[C@H](O)[C@@H](O)[C@H](O)[C@H](O)CO | 81 to 83 °C
COC(=O)c1cc(OC)c(C)c2c1Oc1c(C=O)c(O)cc(C)c1C(=O)O2 | 264 to 265 °C
COc1ccccc1Oc1c(Cl)nc(-c2ccccn2)nc1NS(=O)(=O)c1ccc(C(C)(C)C)cc1 | 122 to 123 °C
CCOc1cc2c(cc1OC)C(c1cnc(OC)nc1)=N[C@@H]1CC[C@@H](O)C[C@H]21 | 124 °C

Compound | melting point
C=Cc1c(C(C)C)nc(C(C)C)c(CCCCC)c1-c1ccc(F)cc1 | 44 to 46 °C
COc1nc2cc(C)c(C)cc2nc1C(=O)O | 180 to 182 °C
COc1cc(F)ccc1C(=O)NC(C)c1nc(-c2ccncn2)cc(=O)n1C (racemic) | 201 to 203 °C
O=C1NC2CCC(=O)N2[C@H]1Cc1ccccc1 (stereo partly drawn) | 141 to 145 °C
CC(C)(C)n1cc(-c2ccc(I)cc2)c(C#N)c1N | 166 to 167 °C
COc1cc2oc(=O)c3c(c2cc1OC)CCN(CC(C)=O)C3 | 168 to 172 °C
CCCCn1c(=O)c2cc(C(=O)O)cn2c2ccccc21 | 212 to 214 °C
CCS(=O)(=O)N1CCN(CCCCCCNc2cc(OC)cc3c(C)ccnc23)CC1 | 72 to 74 °C
CN1C(=O)[C@@H](NC(=O)OC(C)(C)C)CSc2ccccc21 | 116 to 120 °C
O=C(NO)c1ccc(CNC(=O)c2[nH]c(-c3cccs3)cc2-c2ccc(O)cc2)cc1 | 171 to 172 °C
COc1cccc([C@H]2O[C@H](CC(=O)Nc3cccc(CCCC(=O)O)c3)C(=O)N(CC(C)(C)CO)c3ccc(Cl)cc32)c1OC | 119 to 122 °C
CCCC[C@@H](NC(=O)OC(C)(C)C)C(=O)NCC(=O)OCc1ccccc1 | 85 to 86 °C
CC(C)(C)OC(=O)c1cc(-c2cccc(F)c2)c(=O)n2c1-c1sccc1CC2 | 135 to 137 °C
CCCCOC(=O)NC1C(=O)N(OCC(=O)OC(c2ccccc2)c2ccccc2)C1C (stereo not drawn) | 105 to 108 °C
Cc1coc2ncnc(NCCc3ccc(Cl)cc3)c12 | 140 °C
CCOCCn1c(NC2CCN(C(=O)c3ccccc3N)C(Cc3ccccc3)C2)nc2ccccc21 (stereo not drawn) | 197 °C
CCCNC(=O)Nc1ccccc1 | 106 to 107 °C
CC(=O)N(C(C)=O)C1=C(N2CCN(c3ccc(F)cc3)CC2)C(=O)c2ccccc2C1=O | 149 to 150 °C
Cc1ccc2c(c1)C1c3cc4c(cc3OCC1NC2=O)OCO4 (stereo not drawn) | > 250 °C
C#CC(=CC(=O)O)c1ccccc1 | 130 °C
CCC(CC)(CC(=O)Nc1cccc(OCc2ccc3ccc(OC)cc3n2)c1)C(=O)O | 96 to 97 °C
CN(C)/C=C/C(=O)c1ccc2n1Cc1ccccc1N(C(=O)c1ccc(C3CCCCC3)cc1)C2 | 237 to 240 °C
CC(=O)NCC1CN(c2ccc3c(c2)OCC2CN(C(=O)c4cc5ccccc5[nH]4)CCN32)C(=O)O1 (stereo not drawn) | > 250 °C
O=C1CCCc2c1ccc(O)c2O | 191 to 194 °C
COc1ccc(-c2nc(C(=O)N3CCN(C(C)=O)CC3)sc2-c2ccc(OC)cc2)cc1 | 176 to 178 °C
CCOC(=O)c1sc(N2CCN(Cc3ccc(C(F)(F)F)cc3)C2=O)nc1C | 126 to 127 °C

Compound | melting point
CC(=Cc1ccc(OCc2cccc(Cl)c2)cc1)[N+](=O)[O-] | 117 to 118 °C
O=C1c2ccccc2C(=O)N1CCCCc1ccc(S(=O)(=O)Cl)cc1 | 122 to 125 °C
COC(=O)CCC(=O)CCl | 8 to 13 °C
COc1ccc(C(Cl)=CC(=O)C(F)(F)C(F)(F)F)cc1OC | 67 °C
Cn1cc(S(C)=O)c(=O)c2sc(-c3ccccc3)cc21 (stereo not drawn) | 252 to 255 °C
CCOC(=O)c1c(C)nc(Cl)c([N+](=O)[O-])c1NC(C)(C)C | 35 to 36 °C
O=C1CCCCCCCCCCC(O)CCCO1 (stereo not drawn) | 59 to 61 °C
COc1cccc(-c2cc(-c3ccoc3)on2)c1 | 36 to 37 °C
CCOCC1=C(C(=O)OCC)C(c2cccc([N+](=O)[O-])c2)C(C(=O)OCC)=C(C)N1 (stereo not drawn) | 120 to 122 °C
Cc1cc2c(c(C)c1O)C(C)CN2C(=O)C(C)(C)C (stereo not drawn) | 144 to 145 °C
CCCc1nnc2ccc(-c3ccccc3)nn12 | 123 to 125 °C
CCc1[nH]n(C2CCCC2)c2nc(Cc3ccccc3OC)nc(=O)c1-2 | 145 to 146 °C
COC(=O)C1(C(=O)Nc2ccc(Br)cc2C)C2CCCCC21 (stereo not drawn) | 105 to 107 °C
O=C(N[C@H](Cc1ccc(F)cc1)C(=O)N1CCC(O)CC1)c1cc2ccccc2[nH]1 | 204 to 207 °C
CC(=O)NC(C)Cc1ccc(CCCC(=O)O)cc1 (stereo not drawn) | 114 to 117 °C
CC(C)CCN1CNC(=O)C12CCNCC2 | 103 to 105 °C
O=C1CCc2cc(Cl)ccc2C1 | 121 to 122 °C
O=[N+]([O-])c1ccc2snc(-c3ccccc3)c2c1 | 130 °C
CCC(=O)c1cnccn1 | 46 to 47 °C
Cc1ccccc1-c1nn(C(C)C(=O)N(C)C)cc1Cl (stereo not drawn) | 69 to 71.5 °C
Cc1nc(O)c(C)c(Cl)n1 | 224 to 225 °C
Cc1c(S(=O)(=O)c2ccc(Cl)cc2)cc(C(C)C)c(O)c1C(=O)O | 165 to 166 °C
N#Cc1cc(Cn2cncn2)cc(-c2ccccc2)c1 | 109 to 110 °C
CCOC(=O)C(C)(C)Oc1ccc(CCCC(=O)NN(Cc2cccc(OC)c2)C(N)=O)cc1 | 91.9 to 93.4 °C
NC(=S)C=Cc1ccc(SC(F)(F)F)cc1 | 143 to 144 °C
NC(=O)c1cn(CCO)nc1[N+](=O)[O-] | 148 to 150 °C

Compound | melting point
CSc1ccc2c(=O)cc(C(=O)N[C@H]3CCN(C(=O)c4cc(C(F)(F)F)cc(C(F)(F)F)c4)[C@H](Cc4ccc(Cl)cc4)C3)oc2c1 | 137 to 140 °C
CNC(=O)C1CC(c2ccc(-c3ccc(N4C[C@H](Cn5ccnn5)OC4=O)cc3F)cn2)=NO1 (stereo partly drawn) | 185 to 195 °C
CCCC1CCC(c2ccc(-c3ccc(N=C=S)cc3)cc2)CC1 (stereo not drawn) | 149 °C
Brc1ccc(OC2CN(C(c3ccccc3)c3ccccc3)C2)cc1 | 116 to 117 °C
C#CCOc1cc(C(=O)OC)ccc1F | 60.5 to 61.5 °C
O=C1c2c(O)ccc(O)c2C(=O)c2c(NCCN3CCOC34CCCCC4)ccc(NCCN3CCOC34CCCCC4)c21 | 218 to 225 °C
CSC1=CC2=CN(S)NN2C(SC)=N1 | 250 to 252 °C
CN1CCC(c2cc3c(F)cccc3c(=O)[nH]2)CC1 | 220 to 222 °C
O=C(O)c1nc(Cl)cc([N+](=O)[O-])c1Cl | 192 to 193 °C
CC#CCOc1ccc(S(=O)(=O)NC(C(=O)NO)C(C)(C)SCCN2CCOCC2)cc1 (stereo not drawn) | 72 °C
CC(=O)Nc1cc2c(cc1[N+](=O)[O-])OC(C)(C)O2 | 173 to 174 °C
COc1ccc(-c2nc(NC(C)=O)n3nc(-c4ccco4)nc3n2)cc1 | 243 to 246 °C
COC(=O)C(C)(C)OCc1cc2nc(Cl)ccc2n1S(=O)(=O)c1ccccc1 | 84 to 87 °C
COC(=O)C(C)(SC)c1ccc(N2CCCCC2)c(Cl)c1 (stereo not drawn) | 83.5 to 85 °C
COc1ccc([C@@H]2CCCC[C@H]2C#N)c(OC)c1OC (relative stereo) | 69 to 72 °C
Nc1nc(NCCc2ccc(Cl)cc2)sc1C(=O)c1ccccc1[N+](=O)[O-] | 117 to 120 °C
O=c1c2c(Cl)cccc2nc(CSc2ncnc3[nH]cnc23)n1-c1ccccc1Cl | 234 °C
CNCCON=C1c2ccccc2C2CC2c2ccccc21 (stereo not drawn) | 100 to 101 °C
CC1CCC(C(C)C)C(OC(=O)[C@@H](c2ccc(OCc3ccc4ccccc4n3)cc2)C2CCCCCC2)C1 (stereo partly drawn) | 127 °C
C1=Cc2ccccc2ON1 | 134 to 136 °C
OCCOCCOCCN1CCC(=C2c3ccccc3CC(O)c3sccc32)CC1 (stereo not drawn) | 110 to 113 °C
Nc1cccc(NC(=O)C(=O)N2CCC(Cc3ccccc3)CC2)c1 | 103 to 105 °C
NC(=O)C=Cc1cccc(NC(=O)c2cc(-c3cccc(F)c3)ccc2F)c1 | 216 to 218 °C
CCOC(=O)c1cc2cc(CC#N)ccc2o1 | 76 to 77 °C
COc1cc(N2CCN(C)CC2)ccc1-c1nc2c(N[C@H]3[C@@H](C(N)=O)[C@@H]4C=C[C@H]3C4)ccnc2[nH]1 | 185 to 195 °C
